From US8653275B2, “Bis-quaternary ammonium cyclophane compounds that interact with neuronal nicotinic acetylcholine receptors” (University of Kentucky Research Foundation, priority 2006, dated 2014)

Assays:
BBB choline transporter = assay: Affinity for the BBB choline transporter; format: binding
[1] = target: T1, Rat striatal nicotinic receptors ([3H]nicotine binding) (Rattus norvegicus, UniProt P09483+P12390); assay: Inhibition of [3H]nicotine binding; settings: 3 nM [3H]nicotine; for Inhibition of [3H]Nicotine binding: % inhibition at 100 nM analog, nonspecific binding with 10 μM cytisine
T1 construct: Whole brain, excluding cortex and cerebellum, was homogenized; from tissue; host or cells: rat brain membranes (whole brain excluding cortex and cerebellum)
T1 sequence (P09483 31-630): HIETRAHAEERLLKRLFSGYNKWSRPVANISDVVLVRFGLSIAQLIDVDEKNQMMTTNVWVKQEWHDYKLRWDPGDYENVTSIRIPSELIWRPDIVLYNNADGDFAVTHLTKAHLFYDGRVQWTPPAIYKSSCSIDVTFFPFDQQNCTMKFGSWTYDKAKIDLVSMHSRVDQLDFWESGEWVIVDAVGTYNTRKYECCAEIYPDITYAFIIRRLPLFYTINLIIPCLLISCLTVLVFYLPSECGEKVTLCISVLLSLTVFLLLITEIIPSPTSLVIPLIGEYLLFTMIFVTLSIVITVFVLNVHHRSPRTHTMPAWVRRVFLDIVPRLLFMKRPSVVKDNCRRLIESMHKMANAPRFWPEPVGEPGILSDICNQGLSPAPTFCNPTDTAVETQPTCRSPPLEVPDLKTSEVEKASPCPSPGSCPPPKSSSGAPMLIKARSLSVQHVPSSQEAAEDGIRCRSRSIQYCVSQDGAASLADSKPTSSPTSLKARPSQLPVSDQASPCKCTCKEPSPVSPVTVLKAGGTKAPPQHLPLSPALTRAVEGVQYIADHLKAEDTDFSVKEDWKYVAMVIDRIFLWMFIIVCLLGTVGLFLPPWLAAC
T1 sequence (P12390 25-500): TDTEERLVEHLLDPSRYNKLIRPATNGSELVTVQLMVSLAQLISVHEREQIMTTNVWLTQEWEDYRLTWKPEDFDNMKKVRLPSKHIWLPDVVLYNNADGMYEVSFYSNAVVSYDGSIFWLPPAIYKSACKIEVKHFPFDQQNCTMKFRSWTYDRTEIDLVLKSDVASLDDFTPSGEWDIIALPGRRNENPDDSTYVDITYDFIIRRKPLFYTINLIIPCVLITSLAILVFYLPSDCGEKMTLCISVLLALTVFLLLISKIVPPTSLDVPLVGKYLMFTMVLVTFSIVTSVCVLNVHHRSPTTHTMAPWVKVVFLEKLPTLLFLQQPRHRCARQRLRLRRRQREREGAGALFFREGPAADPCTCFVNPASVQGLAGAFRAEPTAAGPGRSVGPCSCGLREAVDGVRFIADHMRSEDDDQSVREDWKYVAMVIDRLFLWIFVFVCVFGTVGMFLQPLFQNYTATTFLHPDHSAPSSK
Description: (§1) Whole brain, excluding cortex and cerebellum, was homogenized in 20 vol of ice-cold buffer, containing (in mM): 2 HEPES, 11.8 NaCl, 0.48 KCl, 0.25 CaCl2 and 0.12 MgSO4, pH 7.5. Homogenate was centrifuged (25,000 g, 15 min, 4° C.). Pellets were resuspended in 20 vol buffer and incubated at 37° C., for 10 min, cooled to 4° C. and centrifuged (25,000 g, 15 min, 4° C.). Pellets were resuspended and centrifuged using the same conditions. Final pellets were stored in assay buffer, containing (in mM): 20 HEPES, 118 NaCl, 4.8 KCl, 2.5 CaCl2, and 1.2 MgSO4, pH 7.5 at −70° C. Upon use, final pellets were resuspended in ˜20 vol assay buffer. Samples (250 μl) contained 100-140 μg of membrane protein, 3 nM [^3H]nicotine or 3 nM [^3H]methyllycaconitine (MLA), and bis-quaternary ammonium cyclophane analog (100 nM) in assay buffer containing 50 mM Tris. Control was in the absence of analog. In [^3H]nicotine and [^3H]methyllycaconitine binding assays, nonspecific binding was determined in the presence of 10 μM cytisine and 10 μM nicotine, respectively. Incubations proceeded for 60 min at room temperature using 96-well plates and were terminated by harvesting on Unifilter-96 GF/B filter plates presoaked in 0.5% polyethylenimine, using a Packard FilterMate harvester. After washing 5 times with 350 μl ice-cold assay buffer, filter plates were dried (60 min, 4° C.), bottom-sealed, and filled with Packard's MicroScint 20 cocktail (40 μl/well). After 60 min, filter plates were top-sealed, and radioactivity determined using a Packard TopCount. Protein concentrations were determined using the Bradford dye-binding procedure bovine serum albumin as the standard.

[2] = target: T2, Rat striatal nicotinic receptors ([3H]MLA binding) (Rattus norvegicus, UniProt Q05941); assay: Inhibition of [3H]methyllycaconitine (MLA) binding; settings: for Inhibition of [3H]MLA Binding: % inhibition at 100 nM analog, 2.5 nM [3H]MLA, nonspecific binding with 1 μM nicotine (footnote b)
T2 construct: Whole brain, excluding cortex and cerebellum, was homogenized; from tissue; host or cells: rat brain membranes (whole brain excluding cortex and cerebellum)
T2 sequence (Q05941 23-502): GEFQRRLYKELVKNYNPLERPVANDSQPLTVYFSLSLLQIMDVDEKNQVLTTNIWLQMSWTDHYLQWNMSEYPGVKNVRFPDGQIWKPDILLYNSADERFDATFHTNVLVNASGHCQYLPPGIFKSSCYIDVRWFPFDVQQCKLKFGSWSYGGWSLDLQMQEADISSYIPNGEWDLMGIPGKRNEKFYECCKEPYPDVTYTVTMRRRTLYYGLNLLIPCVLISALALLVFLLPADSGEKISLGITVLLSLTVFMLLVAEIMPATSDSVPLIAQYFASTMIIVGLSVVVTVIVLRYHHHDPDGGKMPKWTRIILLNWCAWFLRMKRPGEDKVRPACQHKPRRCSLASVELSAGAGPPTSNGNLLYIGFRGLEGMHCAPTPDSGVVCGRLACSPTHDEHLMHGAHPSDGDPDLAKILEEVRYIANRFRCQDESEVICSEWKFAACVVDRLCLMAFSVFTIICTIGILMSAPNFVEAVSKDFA
Description: as §1, with “Samples (250 μl) contained 100-140 μg of membrane protein, 3 nM [^3H]nicotine or 3 nM [^3H]methyllycaconitine (MLA), and bis-quaternary ammonium cyclophane analog (100 nM) in assay buffer containing 50 mM Tris.” left out, “In [^3H]nicotine and [^3H]methyllycaconitine binding assays, nonspecific binding was determined in the presence of 10 μM cytisine and 10 μM nicotine, respectively.” left out

[3] = system: nicotine-evoked [3H]DA release, rat striatal slices; assay: Inhibition of nicotine-evoked [3H]dopamine release from superfused rat striatal slices; format: cell-based; settings: 100 nM analog superfused 60 min before nicotine (10 μM)
Description: Rat striatal slices (500 μm thickness, 6-8 mg wet weight) were incubated for 30 minutes in Krebs buffer (118 mM NaCl, 4.7 mM KCl, 1.2 mM MgCl2, 1.0 mM NaH2PO4, 1.3 mM CaCl2, 11.1 mM glucose, 25 mM NaHCO3, 0.11 mM L-ascorbic acid, and 0.004 mM disodium EDTA; pH 7.4, and saturated with 95% O2/5% CO2) in a metabolic shaker at 34° C. Slices were rinsed with 15 mL of fresh buffer and incubated for an additional 30 minutes in fresh buffer containing 0.1 μM [^3H]dopamine (DA; 6 slices/3 mL). Subsequently, slices were rinsed with 15 mL of fresh buffer and transferred to a glass superfusion chamber. Slices were superfused (1.0 mL/min) for 60 minutes with Krebs buffer containing nomifensine (10 μM) and pargyline (10 μM) and maintained at 34° C., pH 7.4, with continual aeration (95% O2/5% CO2). Two five minute samples (5 mL each) were collected to determine basal outflow of [^3H]DA. The bis-quaternary ammonium cyclophane analogs were added to the superfusion buffer after the collection of the second sample and remained in the buffer until 12 consecutive five minute samples were collected. […] At the end of the experiment, each slice was solubilized and the [^3H] content of the tissue determined.
Radioactivity in the superfusate and tissue samples was determined by liquid scintillation spectroscopy. Fractional release for tritium collected in each sample was divided by the total tritium present in the tissue at the time of sample collection and was expressed as a percentage of total tritium. Basal [^3H]outflow was calculated from the average of the tritium collected in the two five minute samples just before addition of the quaternary ammonium analog. […] [^3H]Overflow was calculated by subtracting the [^3H]outflow during an equivalent period of prestimulation from the values in samples collected during and after drug exposure. […]
The bis-quaternary ammonium cyclophane analogs were also evaluated for their ability to inhibit nicotine evoked [^3H]DA release. […] Antagonist activity was evaluated by comparing the nicotine evoked [^3H]overflow in the absence and presence of the analogs. […]

[4] = full concentration effect evaluated

| SMILES | Ki (BBB choline transporter) | Inhibition of [3H]Nicotine binding [1] | Inhibition of [3H]MLA Binding [2] | Inhibition of Nicotine-evoked [3H]DA release [3] | Ki [1, 4] | Ki [2, 4] |
| --- | --- | --- | --- | --- | --- | --- |
| C1#Cc2ccc[n+](c2)CCCCCCCCCCC[n+]2cccc(c2)C#CCCCCCC1.[Br-].[Br-] [N,N′-(1,11-undecanediyl)-3,3′-(1,9-decanediyn-1,10-diyl)-bis-pyridinium dibromide] | 15.2 µM | 11% | 3% | – | – | – |
| c1cc2c[n+](c1)CCCCCCCCCCCCc1ccc[n+](c1)CCCCCCCCCCCC2 [N,3′-(1,12-dodecanediyl)-3,N′-(1,12-dodecanediyl)-bis-pyridinium dibromide] | – | 2% | 0% | 20% | – | – |
| C1#Cc2ccc[n+](c2)CCCCCC[n+]2cccc(c2)C#CCCCCCC1.[I-].[I-] [N,N′-(1,6-hexanediyl)-3,3′-(1,9-decanediyn-1,10-diyl)-bis-pyridinium diiodide] | 33.6 µM | 7% | 2% | – | – | – |
| C1#Cc2ccc[n+](c2)CCCCCCCCC[n+]2cccc(c2)C#CCCCCCC1.[Br-].[Br-] [N,N′-(1,9-nonanediyl)-3,3′-(1,9-decanediyn-1,10-diyl)-bis-pyridinium dibromide] | 1.4 µM | 0% | 3% | – | – | – |
| C1#Cc2ccc[n+](c2)CCCCCCCCCC[n+]2cccc(c2)C#CCCCCCC1 [N,N′-(1,10-decanediyl)-3,3′-(1,9-decanediyn-1,10-diyl)-bis-pyridinium diiodide] | 0.8 µM | – | – | 19% | 0.55 µM | 4.64 µM |
| c1cc2c[n+](c1)CCCC[n+]1cccc(c1)CCCCCCCCCCCC2 [N,N′-(1,4-butanediyl)-3,3′-(1,12-dodecanediyl)-bis-pyridinium diiodide] | – | 14 ± 2.6% | 3.0 ± 3.0% | 23% | – | – |
| C1#Cc2ccc[n+](c2)CCCCCCCC[n+]2cccc(c2)C#CCCCCCC1.[I-].[I-] [N,N′-(1,8-octanediyl)-3,3′-(1,9-decanediyn-1,10-diyl)-bis-pyridinium diiodide] | – | 9% | 0% | – | – | – |
